pIC50: −log10 of the molar value.
Target: CCR2 (Homo sapiens (Human), UniProt P41597)
Assay: MCP-1 Receptor Binding Assay in THP-1 Cells;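 also: THP-1 is a human monocytic cell line, and nonspecific binding was defined with 1 µM unlabeled MCP-1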
Conditions: 0.5 nM 125I labeled MCP-1, 2 hours at 30° C., read-out: Inhibition of MCP-1 Binding IC50 MCP1B

Sequence of CCR2 (P41597 whole entry): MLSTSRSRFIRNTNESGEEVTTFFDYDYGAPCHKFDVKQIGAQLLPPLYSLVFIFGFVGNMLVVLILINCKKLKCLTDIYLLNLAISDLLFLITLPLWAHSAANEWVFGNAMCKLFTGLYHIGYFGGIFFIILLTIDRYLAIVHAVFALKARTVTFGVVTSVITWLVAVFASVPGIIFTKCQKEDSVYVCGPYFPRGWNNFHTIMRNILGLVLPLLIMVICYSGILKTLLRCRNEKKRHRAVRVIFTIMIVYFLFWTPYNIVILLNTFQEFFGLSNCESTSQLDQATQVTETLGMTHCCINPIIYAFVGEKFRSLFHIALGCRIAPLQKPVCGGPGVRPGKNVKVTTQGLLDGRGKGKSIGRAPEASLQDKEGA

Compound	pIC50
C=C(C)[C@H]1CC[C@@H](N2CC(NC(=O)CNc3ncnc4ccc(C(F)(F)F)cc34)C2)CC1 [Example 36, N-(1-((1s,4s)-4-(prop-1-en-2-yl)cyclohexyl)azetidin-3-yl)-2-((6-(trifluoromethyl)quinazolin-4-yl)amino)acetamide]	7.12
CN(C)C(=O)[C@H]1CC[C@@H](N2CC(NC(=O)CNc3ncnc4ccc(C(F)(F)F)cc34)C2)CC1 [Example 128, (1s,4s)-N,N-dimethyl-4-(3-(2-((6-(trifluoromethyl)quinazolin-4-yl)amino)acetamido)azetidin-1-yl)cyclohexanecarboxamide]	6.44
O=C(CNc1ccnc2ccc(C(F)(F)F)cc12)NC1CN([C@H]2CC[C@@H](n3ccccc3=O)CC2)C1 [Example 58, N-(1-((1s,4s)-4-(2-oxopyridin-1(2H)-yl)cyclohexyl)azetidin-3-yl)-2-((6-(trifluoromethyl)quinolin-4-yl)amino)acetamide]	7.04
CCCN(C(=O)OCc1ccccc1)[C@H]1CC[C@@H](N2CC(NC(=O)CNc3ncnc4ccc(C(F)(F)F)cc34)C2)CC1 [Example 48, benzyl propyl((1s,4s)-4-(3-(2-((6-(trifluoromethyl)quinazolin-4-yl)amino)acetamido)azetidin-1-yl)cyclohexyl)carbamate]	6.52
C=CC(O)[C@H]1CC[C@@H](N2CC(NC(=O)CNc3ncnc4ccc(C(F)(F)F)cc34)C2)CC1 (stereo partly drawn) [Example 92, N-(1-((1S,4s)-4-(1-hydroxyallyl)cyclohexyl)azetidin-3-yl)-2-((6-(trifluoromethyl)quinazolin-4-yl)amino)acetamide]	7.80
CCNC(=O)C1CCC(N2CC(NC(=O)CNc3ncnc4ccc(C(F)(F)F)cc34)C2)CC1 (centres unmarked) [Example 127, N-ethyl-4-(3-(2-((6-(trifluoromethyl)quinazolin-4-yl)amino)acetamido)azetidin-1-yl)cyclohexanecarboxamide]	6.70
O=C(CNc1ncnc2ccc(C(F)(F)F)cc12)NC1CN([C@H]2CC[C@@H](n3ccccc3=O)CC2)C1 [Example 55, N-(1-((1s,4s)-4-(2-oxopyridin-1-(2H)-yl)cyclohexyl)azetidin-3-yl)-2-((6-(trifluoromethyl)quinazolin-4-yl)amino)acetamide]	7.82
O=C(CNc1cnnc2ccc(C(F)(F)F)cc12)NC1CN([C@H]2CC[C@@](O)(c3cncs3)CC2)C1 [Example 147, N-(1-((1r,4r)-4-hydroxy-4-(thiazol-5-yl)cyclohexyl)azetidin-3-yl)-2-((6-(trifluoromethyl)cinnolin-4-yl)amino)acetamide]	8.04
CCC(NC(=O)C(F)(F)F)[C@H]1CC[C@@H](N2CC(NC(=O)CNc3ncnc4ccc(C(F)(F)F)cc34)C2)CC1 (stereo partly drawn) [Example 135, 2,2,2-trifluoro-N—((S)-1-((1s,4R)-4-(3-(2-((6-(trifluoromethyl)quinazolin-4-yl)amino)acetamido)azetidin-1-yl)cyclohexyl)propyl)acetamide]	5.53
CC(C)[C@@H](O)[C@H]1CC[C@H](N2CC(NC(=O)CNc3nccc4ncc(C(F)(F)F)cc34)C2)CC1 [Example 156, N-(1-((1R,4r)-4-((R)-1-hydroxy-2-methylpropyl)cyclohexyl)azetidin-3-yl)-2-((3-(trifluoromethyl)-1,6-naphthyridin-5-yl)amino)acetamide]	6.37
CCC(NC(=O)OC)[C@H]1CC[C@@H](N2CC(NC(=O)CNc3ncnc4ccc(C(F)(F)F)cc34)C2)CC1 (stereo partly drawn) [Example 104, methyl (−1-((1s,4S)-4-(3-(2-((6-(trifluoromethyl)quinazolin-4-yl)amino)acetamido)azetidin-1-yl)cyclohexyl)propyl)carbamate]	6.19
O=C(CNc1ncnc2ccc(C(F)(F)F)cc12)NC1CN([C@H]2CC[C@@H](C3(O)CC=CC3)CC2)C1 [Example 28]	7.64
O=C(CNc1cc(C(F)(F)F)nc2ccc(C(F)(F)F)cc12)NC1CN([C@H]2CC[C@@](O)(c3nccs3)CC2)C1 [Example 24, 2-((2,6-bis(trifluoromethyl)quinolin-4-yl)amino)-N-(1((1r-4r)-4-hydroxy-4-(thiazol-2-yl)cyclohexyl)azetidin-3-yl)acetamide]	7.55
CSCC(O)[C@H]1CC[C@@H](N2CC(NC(=O)CNc3ncnc4ccc(C(F)(F)F)cc34)C2)CC1 (stereo partly drawn) [Example 18, N-(1-((1S,4s)-4-(1-hydroxy-2-(methylthio)ethyl)cyclohexyl)azetidin-3-yl)-2-((6-(trifluoromethyl)quinazolin-4-yl)amino)acetamide]	8.00
CC[C@@H](O)C1CCC(N2CC(NC(=O)CNc3nccc4ccc(C(F)(F)F)cc34)C2)CC1 (stereo partly drawn) [Example 167, N-(1-((1R,4s)-4-(1-hydroxypropyl)cyclohexyl)azetidin-3-yl)-2-((7-(trifluoromethyl)isoquinolin-1-yl)amino)acetamide]	7.36
O=C1CCC(N2CC(NC(=O)CNc3ncnc4ccc(C(F)(F)F)cc34)C2)CC1 [Example 103, N-(1-(4-oxocyclohexyl)azetidin-3-yl)-2-((6-(trifluoromethyl)quinazolin-4-yl)amino)acetamide]	6.28

Compound	pIC50
O=C(CNc1ncnc2ccc(C(F)(F)F)cc12)NC1CN([C@H]2CC[C@@H](C(O)C(F)(F)C(F)(F)C(F)(F)F)CC2)C1 (stereo partly drawn) [Example 35, N-(1-((1R,4s)-4-(2,2,3,3,4,4,4-heptafluoro-1-hydroxybutyl)cyclohexyl)azetidin-3-yl)-2-((6-(trifluoromethyl)quinazolin-4-yl)amino)acetamide]	6.57
O=C(CNc1ncnc2ccc(C(F)(F)F)cc12)NC1CN([C@H]2CC[C@@H](CO)CC2)C1 [Example 109, N-(1-((1s,4s)-4-(hydroxymethyl)cyclohexyl)azetidin-3-yl)-2-((6-(trifluoromethyl)quinazolin-4-yl)amino)acetamide]	7.24
CCC(O)[C@H]1CC[C@@H](N2CC(NC(=O)CNc3cc(C(F)(F)F)nc4ccc(C(F)(F)F)cc34)C2)CC1 (some centres unmarked) [Example 25, 2-((2,6-bis(trifluoromethyl)quinolin-4-yl)amino)-N-(1((-1R,4s)-4-(1-hydroxypropyl)cyclohexyl)azetidin-3-yl)acetamide]	7.00
O=C(CNc1ncnc2ccc(C(F)(F)F)cc12)NC1CN([C@H]2CC[C@@H](c3ccccc3CO)CC2)C1 [Example 73, N-(1-((1s,4s)-4-(2-(hydroxymethyl)phenyl)cyclohexyl)azetidin-3-yl)-2-((6-(trifluoromethyl)quinazolin-4-yl)amino)acetamide]	7.26
O=C(CNc1ncnc2ccc(C(F)(F)F)cc12)NC1CN([C@H]2CC[C@@H](CNC(=O)C(F)(F)F)CC2)C1 [Example 112]	7.09
CCC(O)[C@H]1CC[C@@H](N2CC(NC(=O)CNc3ncnc4ccc(C(F)(F)F)cc34)C2)CC1 (stereo partly drawn) [Example 93, N-(1-((1S,4s)-4-(1-hydroxypropyl)cyclohexyl)azetidin-3-yl)-2-((6-(trifluoromethyl)quinazolin-4-yl)amino)acetamide]	7.68
[2H][C@]1(N2CC(NC(=O)CNc3ncnc4ccc(C(F)(F)F)cc34)C2)CC[C@@H](C(O)C2CC2)CC1 (stereo partly drawn) [Example 5, N-(1-((1S,4s)-4-(cyclopropyl(hydroxy)methyl)1-deuterocyclohexyl)azetidin-3-yl)-2-((6-(trifluoromethyl)quinazolin-4-yl)amino)acetamide]	7.85
O=C(CNc1ncnc2ccc(C(F)(F)F)cc12)NC1CN([C@H]2CC[C@@H](C(O)C3CCCC3)CC2)C1 (stereo partly drawn) [Example 94, N-(1-((1S,4s)-4-(cyclopentyl(hydroxy)methyl)cyclohexyl)azetidin-3-yl)-2-((6-(trifluoromethyl)quinazolin-4-yl)amino)acetamide]	7.62
CCCN(C=O)[C@H]1CC[C@@H](N2CC(NC(=O)CNc3ncnc4ccc(C(F)(F)F)cc34)C2)CC1 [Example 51, N-(1-((1s,4s)-4-(N-propylformamido)cyclohexyl)azetidin-3-yl)-2-((6-(trifluoromethyl)quinazolin-4-yl)amino)acetamide]	7.43
O=C(CNc1ncnc2ccc(C(F)(F)F)cc12)NC1CN([C@H]2CC[C@@H](C3CNC(=O)O3)CC2)C1 (stereo partly drawn) [Example 22, N-(1-((1S,4s)-4-(2-oxooxazolidin-5-yl)cyclohexyl)azetidin-3-yl)-2-((6-(trifluoromethyl)quinazolin-4-yl)amino)acetamide]	7.19
CC(C)c1nc(NCC(=O)NC2CN([C@H]3CC[C@@](O)(c4cncs4)CC3)C2)c2cc(C(F)(F)F)ccc2n1 [Example 88]	8.15
O=C(CNc1ncnc2ccc(C(F)(F)F)cc12)NC1CN([C@H]2CC[C@@H](N3CCSCC3)CC2)C1 [Example 133, N-(1-((1s,4s)-4-thiomorpholinocyclohexyl)azetidin-3-yl)-2-((6-(trifluoromethyl)quinazolin-4-yl)amino)acetamide]	6.70
CCOCC1CCC(N2CC(NC(=O)CNc3ncnc4ccc(C(F)(F)F)cc34)C2)CC1 (centres unmarked) [Example 105, N-(1-(4-(ethoxymethyl)cyclohexyl)azetidin-3-yl)-2-((6-(trifluoromethyl)quinazolin-4-yl)amino)acetamide]	7.85
O=C(CNc1ncnc2ccc(C(F)(F)F)cc12)NC1CN([C@H]2CC[C@@H]([C@@H](O)C3CC3)CC2)C1 [(−) 4, N-(1-((1S,4s)-4-(cyclopropyl(hydroxy)methyl)cyclohexyl)azetidin-3-yl)-2-((6-(trifluoromethyl)quinazolin-4-yl)amino)acetamide]	8.10
CC(C)[C@@H](O)[C@H]1CC[C@H](N2CC(NC(=O)CNc3cnnc4ccc(C(F)(F)F)cc34)C2)CC1 (racemic) [Example 158, N-(1-((1R,4r)-4-((R)-1-hydroxy-2-methylpropyl)cyclohexyl)azetidin-3-yl)-2-((6-(trifluoromethyl)cinnolin-4-yl)amino)acetamide]	5.59
CC[C@H](O)C1CCC(N2CC(NC(=O)CNc3nccc4ccc(C(F)(F)F)cc34)C2)CC1 (some centres unmarked) [Example 168]	< 4.60
